From article PMC10246557, “Kinetic and inhibition studies on human Jumonji-C (JmjC) domain-containing protein 5” (RSC Chemical Biology, 2023)
Read-outs that look alike come from different tables or passages of the source.

What was measured:
human JMJD5 = biological target: T1, human JMJD5 (Homo sapiens, UniProt Q8N371); assay: SPE-MS JMJD5 turnover and kinetic assay (RPS6_128–148 hydroxylation); type: biochemical; details: for JMJD5 (%): RPS6_128–148 hydroxylation with the compound as cosubstrate: absence of 2OG, JMJD5 0.15 μM, 2OG derivative 400 μM, Fe(II) 20 μM, RPS6_128–148 2.0 μM
T1 construct: made in house; host or cells: Escherichia coli BL21(DE3)
Procedure: JMJD5 turnover assays for time course and kinetic experiments were performed in 96-well polypropylene assay plates (Greiner) with either […] total reaction volume using the concentrations given in the manuscript or ESI, ^† and JMJD5-catalysed substrate hydroxylation was directly monitored using SPE-MS. […] Assay samples were aspirated under vacuum for 0.6 s and loaded onto a C4 solid phase extraction (SPE) cartridge. After loading, the C4 SPE cartridge was washed with 0.1%v/v aqueous formic acid to remove non-volatile buffer salts (5.5 s, 1.5 mL min^−1). The peptide was eluted from the SPE cartridge with 0.1%v/v aqueous formic acid in 80/20v/v acetonitrile/water into the mass spectrometer (5.5 s, 1.5 mL min^−1) and the SPE cartridge re-equilibrated with 0.1%v/v aqueous formic acid (0.5 s, 1.5 mL min^−1). The mass spectrometer was operated using the MassHunter Workstation B.08.00 software (Agilent), the mass spectrometer parameters were: capillary voltage (4000 V), nozzle voltage (1000 V), fragmentor voltage (365 V), gas temperature (280 °C), gas flow (13 L min^−1), sheath gas temperature (350 °C), sheath gas flow (12 L min^−1). […] Data were exported into Microsoft Excel and used to calculate the % conversion of the hydroxylation reaction using the equation: % conversion = 100 × (integral product peptide)/(integral substrate peptide + integral product peptide).
parameters (continues on the following two pages). Maximum velocities (vapp ) and Michaelis constants (Kapp)
of JMJD5 were determined in independent triplicates, monitoring the JMJD5-catalyzed hydroxylation of the
SPE-MS, as described (Experimental Section).
20 °C). Measurement times were normalized to the first sample injection analyzed after the addition of JMJD5 to
shown as the mean of three independent runs (n = 3; mean ± standard deviation, SD).
hexahydrate (20 μM, (NH4)2Fe(SO4)2·6H2O); and (b) hydroxylation rates used to determine kinetic parameters of
(1 picture or pasted object on this page, not shown here)
Maximum velocities (vapp ) and
Michaelis constants (Kapp) of JMJD5 were determined in independent triplicates for (1R)-3-
(carboxycarbonyl)cyclopentane-1-carboxylic acid (14), monitoring the JMJD5-catalyzed hydroxylation of the
as described (Experimental Section).
pH 7.5, 20 °C). Measurement times were normalized to the first sample injection analyzed after the addition of
(§1) Data are shown as the mean of three independent runs (n = 3; mean ± SD).
to determine kinetic parameters of JMJD5 for 14.

human KDM4E = biological target: T2, human KDM4E (Homo sapiens, UniProt B2RXH2); assay: KDM4E SPE-MS turnover and kinetic assay (H3 K9(me3) peptide demethylation); type: biochemical; details: for K app m / k app cat: 0.15 μM KDM4E, ARTAQTARK(me3)STGGIA 10 μM
T2 sequence (B2RXH2 1-506): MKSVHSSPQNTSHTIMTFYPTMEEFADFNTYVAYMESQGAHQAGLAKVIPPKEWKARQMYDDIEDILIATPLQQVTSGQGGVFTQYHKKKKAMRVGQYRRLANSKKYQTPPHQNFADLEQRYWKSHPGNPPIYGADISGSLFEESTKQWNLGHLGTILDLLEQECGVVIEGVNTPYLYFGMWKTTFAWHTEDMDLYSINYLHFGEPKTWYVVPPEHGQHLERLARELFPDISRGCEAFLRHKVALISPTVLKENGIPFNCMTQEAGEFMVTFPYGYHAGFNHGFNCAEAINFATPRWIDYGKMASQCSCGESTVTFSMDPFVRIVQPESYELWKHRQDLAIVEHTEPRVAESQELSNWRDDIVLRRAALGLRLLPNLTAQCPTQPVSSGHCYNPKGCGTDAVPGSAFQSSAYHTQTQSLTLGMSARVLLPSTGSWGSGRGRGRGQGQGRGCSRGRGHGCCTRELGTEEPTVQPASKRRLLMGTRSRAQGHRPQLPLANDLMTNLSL
Procedure: KDM4E turnover and inhibition assays were performed as reported using recombinant human KDM4E and a histone 3 K9(me3) derivative (i.e. […](me3)STGGIA)[41] as substrate.[95]
Supplementary Figure S3. Rates of KDM4E-catalyzed Nε-trimethyl lysine demethylations of a histone 3- […]
Maximum velocities (vapp ) and Michaelis […]
catalyzed Nε-trimethyl lysine demethylation of the histone 3 K9(me3)-derived peptide […]
(me3)STGGIA2 by SPE-MS as described;3 note that mono-, di-, and tri-demethylated product […]
buffer (50 mM MES, pH 7.0, 20 °C). Measurement times were normalized to the first sample injection analyzed […]
as §1
(a) Time course of the KDM4E-catalyzed Nε-trimethyl lysine demethylation reaction of the […]

human FIH = details: FIH 0.15 μM, cited from earlier work; for FIH (%): substrate hydroxylation with the compound as cosubstrate: absence of 2OG, 2OG derivative 330 μM, Fe(II) 50 μM, HIF-1α788–822 5.0 μM; for K m / k cat: HIF-1α788–822 substrate
human AspH = details: absence of 2OG; AspH 0.1 μM, 2OG derivative 330 μM, Fe(II) 50 μM, hFX-CP101–119 2.0 μM; cited from earlier work
[1] = absence of 2OG, KDM4E 0.15 μM, 2OG derivative 330 μM, Fe(II) 50 μM, ARTAQTARK(me3)STGGIA 10.0 μM

T1 sequence (Q8N371 whole entry): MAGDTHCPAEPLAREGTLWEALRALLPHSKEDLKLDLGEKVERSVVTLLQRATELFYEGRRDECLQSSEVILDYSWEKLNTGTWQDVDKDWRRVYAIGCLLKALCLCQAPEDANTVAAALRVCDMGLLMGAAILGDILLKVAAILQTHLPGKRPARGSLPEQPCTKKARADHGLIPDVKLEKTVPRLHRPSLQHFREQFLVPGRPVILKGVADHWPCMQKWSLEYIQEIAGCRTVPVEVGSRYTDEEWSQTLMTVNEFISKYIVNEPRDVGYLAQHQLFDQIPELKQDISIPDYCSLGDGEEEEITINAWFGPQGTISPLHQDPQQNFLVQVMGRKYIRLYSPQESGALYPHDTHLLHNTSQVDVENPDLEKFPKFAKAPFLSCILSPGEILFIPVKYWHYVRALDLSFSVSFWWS

Row | Molecule | JMJD5 (%): RPS6_128–148 hydroxylation with the compound as cosubstrate (human JMJD5) | KDM4E (%): substrate demethylation with the compound as cosubstrate (human KDM4E; [1]) | FIH (%): substrate hydroxylation with the compound as cosubstrate (human FIH) | AspH (%): substrate hydroxylation with the compound as cosubstrate (human AspH) | also measured
1 | O=C(O)C(=O)CC(Cc1ccccc1)C(=O)O (stereo not drawn) [C00010] | <1% | <1% | <1% | <1% | 
2 | CC(C)(CC(=O)C(=O)O)C(=O)O [C00002] |  | <1% |  |  | 
3 | CC(CC(=O)O)C(=O)C(=O)O (stereo not drawn) [C00003] | ∼10% | ∼10% | ∼55% | >95% | 
4 | O=C(O)C(=O)C1CC[C@@H](C(=O)O)C1 (stereo partly drawn) [C00012] |  | <1% | ∼2% | ∼15% | 
5 | O=C(O)CCC(=O)C(=O)O [C00023] |  |  |  |  | K app m (human KDM4E): 4.2 ± 1.1 µM; k app cat (human KDM4E): 0.14 ± 0.01 s⁻¹
6 | O=C(O)C(=O)c1cccc(C(=O)O)c1 [C00016] | <1% | <1% | <1% | <1% | 
7 | CCCC(CC(=O)O)C(=O)C(=O)O (stereo not drawn) [C00007] | <1% | <1% | <1% | <1% | 
8 | O=C(O)CC(Cc1ccc(OC(F)(F)F)cc1)C(=O)C(=O)O (stereo not drawn) [C00011] | <1% | <1% | <1% | <1% | 
9 | O=C(O)C(=O)CC(Cc1ccccc1)C(=O)O (racemic) [Entry 19] | < 1% | < 1% | < 1% | < 1% | 
10 | O=C(O)C(=O)c1cscc1C(=O)O [Entry 34] | < 1% | < 1% | < 1% | < 1% | 
11 | CC(CC(=O)C(=O)O)C(=O)O (stereo not drawn) [C00017] | ∼10% | <1% | ∼45% | ∼10% | 
12 | CCC(CC(=O)O)C(=O)C(=O)O (stereo not drawn) [C00005] | <1% | <1% | ∼2% | <1% | 
13 | O=C(O)C(=O)C1CC[C@@H](C(=O)O)C1 (stereo partly drawn) [C00024] |  |  |  |  | K app m (human KDM4E): No reaction; k app cat (human KDM4E): No reaction
14 | O=C(O)C(=O)C1CC[C@@H](C(=O)O)C1 (stereo partly drawn) [C00022] |  |  |  |  | K m (human FIH): 14.8 ± 2.6 µM; k cat (human FIH): 0.01 ± 0.001 s⁻¹
15 | O=C(O)CC(CCCc1ccccc1)C(=O)C(=O)O (stereo not drawn) [C00009] | <1% | ∼2% | <1% | <1% | 
16 | O=C1O[C@H]([C@@H](O)CO)C(O)=C1O [LAA, L-ascorbic acid, reference compound] |  |  |  |  | cosubstrate/cofactor role for JMJD5 (human JMJD5): not a cosubstrate/cofactor
17 | CC(C)CC(CC(=O)C(=O)O)C(=O)O (racemic) [Entry 16] | < 1% | < 1% | < 1% | < 1% | 
18 | CCCC(CC(=O)C(=O)O)C(=O)O (stereo not drawn) [C00006] | ∼10% | <1% | ∼5% | <1% | 
19 | O=C(O)C(=O)c1ccccc1C(=O)O [Entry 26] | < 1% | < 1% | < 1% | < 1% | 
20 | O=C(O)CCC(=O)C(=O)O [C00021] |  |  |  |  | K m (human FIH): 0.8 ± 0.1 µM; k cat (human FIH): 0.04 ± 0.01 s⁻¹
21 | CC1(C)c2ccccc2-c2ccc(CC(CC(=O)O)C(=O)C(=O)O)cc21 (stereo not drawn) [C00015] | <1% | <1% | <1% | <1% | 
22 | O=C(O)C(=O)c1ccc(C(=O)O)cc1 [C00018] | <1% | <1% | <1% | ∼80% | 
23 | O=C(O)CCC(=O)C(=O)O [C00019] |  |  |  |  | K app m (human JMJD5; 0.15 μM JMJD5, 50 mM MOPS pH 7.5, 20 °C, LAA present): 0.29 ± 0.04 µM; k app cat (human JMJD5; 0.15 μM JMJD5, 50 mM MOPS pH 7.5, 20 °C, LAA present, calculated from vmax): 0.0056 ± 0.0002 s⁻¹
24 | O=C(O)CCC(=O)C(=O)O [C00001] | ∼40% |  | ∼50% |  | KDM4E (%): substrate demethylation with the compound as cosubstrate (human KDM4E): ∼70%
25 | O=C(O)C(=O)CC(CCCc1ccccc1)C(=O)O (stereo not drawn) [C00008] | <1% | <1% | <1% | <1% | 
26 | RCCD1_134–150: RCCD1 amino acids 134–150, LPLLPCARAYVSPRAPF, JMJD5 substrate peptide [reference compound] |  |  |  |  | JMJD5-catalyzed hydroxylation of the substrate peptide (human JMJD5; after 1 h incubation, 50 mM MOPS pH 7.5, 20 °C): < 10%
27 | CCC(CC(=O)C(=O)O)C(=O)O (stereo not drawn) [C00004] | ∼10% | <1% | ∼10% | <1% | 
